Legend:
[1] = test system: Smn protein; experiment: Smn protein assay (HTRF) in cultured cells (SMA patient fibroblasts GM03813); format: cell-based, human; settings: 48 hours; for EC1.5x for Smn protein expression: SMA patient fibroblast cells (GM03813), HTRF, 7-point concentration data, concentration producing 1.5 times Smn protein vs DMSO vehicle control; for maximum fold (Fold) increase of Smn protein: SMA patient fibroblast cells, 7-point concentration curve, relative to vehicle control
Method: The Smn HTRF (homogeneous time resolved fluorescence) assay is used to quantify the level of Smn protein in SMA patient fibroblast cells treated with test compounds.
Cells are thawed and cultured in DMEM-10% FBS for 72 hours. Cells are trypsinized, counted and re-suspended to a concentration of 25,000 cells/mL in DMEM-10% FBS. The cell suspension is plated at 5,000 cells per well in a 96 well microtiter plate and incubated for 3 to 5 hours. […] Test compounds are serially diluted 3.16-fold in 100% DMSO to generate a 7-point concentration curve. 1 μL of test compound solution is transferred to cell-containing wells and cells are incubated for 48 hours in a cell culture incubator (37° C., 5% CO2, 100% relative humidity). Triplicate samples are set up for each test compound concentration. After 48 hours, the supernatant is removed from the wells and 25 μL of the RIPA lysis buffer, containing protease inhibitors, is added to the wells and incubated with shaking at room temperature for 1 hour. 25 μL of the diluent is added and then 35 μL of the resulting lysate is transferred to a 384-well plate, where each well contains 5 μL of the antibody solution (1:100 dilution of anti-SMN d2 and anti-SMN kryptate in SMN reconstitution buffer). The plate is centrifuged for 1 minute to bring the solution to the bottom of the wells, then incubated overnight at room temperature. Fluorescence for each well of the plate at 665 nm and 620 nm is measured on an EnVision multilabel plate reader (Perkin-Elmer).
The normalized fluorescence signal is calculated for each sample, Blank and vehicle control well by dividing the signal at 665 nm by the signal at 620 nm. Normalizing the signal accounts for possible fluorescence quenching due to the matrix effect of the lysate. The ΔF value (a measurement of Smn protein abundance as a percent value) for each sample well is calculated by subtracting the normalized average fluorescence for the Blank control wells from the normalized fluorescence for each sample well, then dividing this difference by the normalized average fluorescence for the Blank control wells and multiplying the resulting value by 100. The ΔF value for each sample well represents the Smn protein abundance from test compound-treated samples. The ΔF value for each sample well is divided by the ΔF value for the vehicle control wells to calculate the fold increase in Smn protein abundance relative to the vehicle control.

[2] = test system: SMN2 minigene mRNA (SMN2-A minigene construct); experiment: SMN2 minigene mRNA splicing RT-qPCR assay in cultured cells; format: cell-based, human; settings: Homo sapiens, HEK293-H; HEK293H cells stably transfected with SMN2-A minigene, 24 hours, 7-point concentration data; concentration giving 1.5-fold SMN2 full length mRNA relative to vehicle-treated cells; read-out: EC1.5x for production of full length SMN2 mRNA
Method: The reverse transcription-quantitative PCR-based (RT-qPCR) assay is used to quantify the level of the full length SMN2 minigene mRNA containing SMN2 exon 7 in a HEK293H cell line stably transfected with said minigene and treated with a test compound.
HEK293H cells stably transfected with the SMN2-A minigene construct described above (10,000 cells/well) are seeded in 200 μL of cell culture medium (DMEM plus 10% FBS, with 200 μg/mL hygromycin) in 96-well flat-bottom plates and the plate is immediately swirled to ensure proper dispersal of cells, forming an even monolayer of cells. Cells are allowed to attach for at least 4-6 hours. Test compounds are serially diluted 3.16-fold in 100% DMSO to generate a 7-point concentration curve. A solution of test compound (1 μL, 200× in DMSO) is added to each cell-containing well and the plate is incubated for 24 hours in a cell culture incubator (37° C., 5% CO2, 100% relative humidity). Two replicates are prepared for each test compound concentration. The cells are then lysed in Cells-To-Ct lysis buffer and the lysate is stored at −80° C.
Primer SMN Forward A (SEQ ID NO. 1) hybridizes to a nucleotide sequence in exon 7 (nucleotide 22 to nucleotide 40), primer SMN Reverse A (SEQ ID NO. 2) hybridizes to a nucleotide sequence in the coding sequence of Firefly luciferase, SMN Probe A (SEQ ID NO. 3) hybridizes to a nucleotide sequence in exon 7 (nucleotide 50 to nucleotide 54) and exon 8 (nucleotide 1 to nucleotide 21). The combination of these three oligonucleotides detects only SMN1 or SMN2 minigenes (RT-qPCR) and will not detect endogenous SMN1 or SMN2 genes.
The SMN forward and reverse primers are used at final concentrations of 0.4 μM. The SMN probe is used at a final concentration of 0.15 μM. The GAPDH primers are used at final concentrations of 0.2 μM and the probe at 0.15 μM.
The SMN2-minigene GAPDH mix (15 μL total volume) is prepared by combining 7.5 μL of 2×RT-PCR buffer, 0.4 μL of 25×RT-PCR enzyme mix, 0.75 μL of 20×GAPDH primer-probe mix, 4.0075 μL of water, 2 μL of 10-fold diluted cell lysate, 0.06 μL of 100 μM SMN forward primer, 0.06 μL of 100 μM SMN reverse primer, and 0.225 μL of 100 μM SMN probe.
PCR is carried out at the following temperatures for the indicated time: Step 1: 48° C. (15 min); Step 2: 95° C. (10 min); Step 3: 95° C. (15 sec); Step 4: 60° C. (1 min); then repeat Steps 3 and 4 for a total of 40 cycles.
Each reaction mixture contains both SMN2-A minigene and GAPDH primers/probe sets (multiplex design), allowing simultaneous measurement of the levels of two transcripts.
Two SMN spliced products are generated from the SMN2 minigene. The first spliced product containing exon 7, corresponding to SMN2 full length mRNA, is referred to herein using the term “SMN2 minigene FL.” The second spliced product lacking exon 7 is referred to herein using the term “SMN2 minigene Δ7.”
The increase of SMN2 minigene FL mRNA relative to that in cells treated with vehicle control is determined from real-time PCR data using a modified ΔΔCt method (as described in Livak and Schmittgen, Methods, 2001, 25:402-8). The amplification efficiency (E) is calculated from the slope of the amplification curve for SMN2 minigene FL and GAPDH individually. The abundances of SMN2 minigene FL and GAPDH are then calculated as (1+E)^−Ct, where Ct is the threshold value for each amplicon. The abundance of SMN2 minigene FL is normalized to GAPDH abundance. The normalized SMN2 minigene FL abundance from test compound-treated samples is then divided by normalized SMN2 minigene FL abundance from vehicle-treated cells to determine the level of SMN2 FL mRNA relative to vehicle control.

Cc1ccn2cc(-c3cc4ccc(N5CCNC[C@@H]5C)nc4oc3=O)nc2c1 [Cpd 59, 3-(7-methylimidazo[1,2-a]pyridin-2-yl)-7-[(2S)-2-methylpiperazin-1-yl]-2H-pyrano[2,3-b]pyridin-2-one]
EC1.5x for Smn protein expression [1]: **** (an EC1.5×≦0.3 μM is indicated by four stars (****)) | maximum fold (Fold) increase of Smn protein [1]: **** (a fold increase between >1.5 and ≦1.65 is indicated by four stars (****)) | EC (1.5-fold) [2]: ≤ 0.1 µM

C[C@H]1CNCCN1c1ccc2cc(-c3cn4cccc(F)c4n3)c(=O)oc2n1 [Cpd 63, 3-(8-fluoroimidazo[1,2-a]pyridin-2-yl)-7-[(2S)-2-methylpiperazin-1-yl]-2H-pyrano[2,3-b]pyridin-2-one]
EC1.5x for Smn protein expression [1]: **** (an EC1.5×≦0.3 μM is indicated by four stars (****)) | maximum fold (Fold) increase of Smn protein [1]: **** (a fold increase between >1.5 and ≦1.65 is indicated by four stars (****)) | EC (1.5-fold) [2]: ≤ 0.1 µM

C[C@H]1CN(c2ccc3cc(-c4cn5cccc(F)c5n4)c(=O)oc3n2)CCN1 [Cpd 64, 3-(8-fluoroimidazo[1,2-a]pyridin-2-yl)-7-[(3S)-3-methylpiperazin-1-yl]-2H-pyrano[2,3-b]pyridin-2-one]
EC1.5x for Smn protein expression [1]: **** (an EC1.5×≦0.3 μM is indicated by four stars (****)) | maximum fold (Fold) increase of Smn protein [1]: **** (a fold increase between >1.5 and ≦1.65 is indicated by four stars (****)) | EC (1.5-fold) [2]: ≤ 0.1 µM

Cc1ccc2nc(-c3cc4ccc(N5CCN[C@@H](C)C5)nc4oc3=O)cn2c1 [Cpd 72, 3-(6-methylimidazo[1,2-a]pyridin-2-yl)-7-[(3S)-3-methylpiperazin-1-yl]-2H-pyrano[2,3-b]pyridin-2-one]
EC1.5x for Smn protein expression [1]: **** (an EC1.5×≦0.3 μM is indicated by four stars (****)) | maximum fold (Fold) increase of Smn protein [1]: **** (a fold increase between >1.5 and ≦1.65 is indicated by four stars (****)) | EC (1.5-fold) [2]: ≤ 0.1 µM

Cc1ccc2nc(-c3cc4ccc(N5CCN[C@H](C)C5)nc4oc3=O)cn2c1 [Cpd 73, 3-(6-methylimidazo[1,2-a]pyridin-2-yl)-7-[(3R)-3-methylpiperazin-1-yl]-2H-pyrano[2,3-b]pyridin-2-one]
EC1.5x for Smn protein expression [1]: ** (an EC1.5× between >1 and ≦3 μM is indicated by two stars (**)) | maximum fold (Fold) increase of Smn protein [1]: *** (a fold increase between >1.35 and ≦1.5 is indicated by three stars (***)) | EC (1.5-fold) [2]: 0.1 to 0.3 µM

C[C@H]1CN(c2ccc3cc(-c4cn5ccccc5n4)c(=O)oc3n2)CCN1.Cl [Cpd 79, 3-(imidazo[1,2-a]pyridin-2-yl)-7-[(3S)-3-methylpiperazin-1-yl]-2H-pyrano[2,3-b]pyridin-2-one hydrochloride]
EC1.5x for Smn protein expression [1]: **** (an EC1.5×≦0.3 μM is indicated by four stars (****)) | maximum fold (Fold) increase of Smn protein [1]: ***** (a fold increase >1.65 is indicated by five stars (*****)) | EC (1.5-fold) [2]: ≤ 0.1 µM

C[C@@H]1CN(c2ccc3cc(-c4cn5ccccc5n4)c(=O)oc3n2)CCN1.Cl [Cpd 80, 3-(imidazo[1,2-a]pyridin-2-yl)-7-[(3R)-3-methylpiperazin-1-yl]-2H-pyrano[2,3-b]pyridin-2-one hydrochloride]
EC1.5x for Smn protein expression [1]: **** (an EC1.5×≦0.3 μM is indicated by four stars (****)) | maximum fold (Fold) increase of Smn protein [1]: **** (a fold increase between >1.5 and ≦1.65 is indicated by four stars (****)) | EC (1.5-fold) [2]: ≤ 0.1 µM

C[C@H]1CN(c2ccc3cc(-c4cn5ccsc5n4)c(=O)oc3n2)CCN1.Cl [Cpd 83, 3-(imidazo[2,1-b][1,3]thiazol-6-yl)-7-[(3S)-3-methylpiperazin-1-yl]-2H-pyrano[2,3-b]pyridin-2-one hydrochloride]
EC1.5x for Smn protein expression [1]: **** (an EC1.5×≦0.3 μM is indicated by four stars (****)) | maximum fold (Fold) increase of Smn protein [1]: **** (a fold increase between >1.5 and ≦1.65 is indicated by four stars (****)) | EC (1.5-fold) [2]: ≤ 0.1 µM

C[C@@H]1CN(c2ccc3cc(-c4cn5ccsc5n4)c(=O)oc3n2)CCN1.Cl [Cpd 84, 3-(imidazo[2,1-b][1,3]thiazol-6-yl)-7-[(3R)-3-methylpiperazin-1-yl]-2H-pyrano[2,3-b]pyridin-2-one hydrochloride]
EC1.5x for Smn protein expression [1]: **** (an EC1.5×≦0.3 μM is indicated by four stars (****)) | maximum fold (Fold) increase of Smn protein [1]: ***** (a fold increase >1.65 is indicated by five stars (*****)) | EC (1.5-fold) [2]: ≤ 0.1 µM

Cc1ccn2cc(-c3cc4ccc(N5C[C@H](C)NC[C@H]5C)nc4oc3=O)nc2c1 [Cpd 88, 7-[(2R,5S)-2,5-dimethylpiperazin-1-yl]-3-(7-methylimidazo[1,2-a]pyridin-2-yl)-2H-pyrano[2,3-b]pyridin-2-one]
EC1.5x for Smn protein expression [1]: **** (an EC1.5×≦0.3 μM is indicated by four stars (****)) | maximum fold (Fold) increase of Smn protein [1]: **** (a fold increase between >1.5 and ≦1.65 is indicated by four stars (****)) | EC (1.5-fold) [2]: ≤ 0.1 µM

Cc1ccc2nc(-c3cc4ccc(N5C[C@H](C)N(C)C[C@H]5C)nc4oc3=O)cn2c1 [Cpd 93, 3-(6-methylimidazo[1,2-a]pyridin-2-yl)-7-[(2R,5S)-2,4,5-trimethylpiperazin-1-yl]-2H-pyrano[2,3-b]pyridin-2-one]
maximum fold (Fold) increase of Smn protein [1]: *** (a fold increase between >1.35 and ≦1.5 is indicated by three stars (***)) | EC (1.5-fold) [2]: 0.3 to 1 µM

Cc1cn2cc(-c3cc4ccc(N5C[C@H](C)NC[C@H]5C)nc4oc3=O)nc2cn1 [Cpd 102, 7-[(2R,5S)-2,5-dimethylpiperazin-1-yl]-3-(6-methylimidazo[1,2-a]pyrazin-2-yl)-2H-pyrano[2,3-b]pyridin-2-one]
EC1.5x for Smn protein expression [1]: **** (an EC1.5×≦0.3 μM is indicated by four stars (****)) | maximum fold (Fold) increase of Smn protein [1]: ***** (a fold increase >1.65 is indicated by five stars (*****)) | EC (1.5-fold) [2]: ≤ 0.1 µM

From patent publication US9371336B2, “Compounds for treating spinal muscular atrophy” (PTC Therapeutics Inc., priority 2012, dated 2016)
